Results from US20260078144A1, “ACTIVE PEPTIDE, AND COMPOSITION AND USE THEREOF” (WINKEY TECHNOLOGY USA INC, priority 2023, published 2026).

Tests used:
Format in all cases: cell-based
[1] = test system: Human skin fibroblasts (HSF); assay: Cell proliferation assay (MTT) on HSF cells; settings: 72 h, FIG. 6
Excerpt: (§1) Human skin fibroblasts (HSF) were purchased from the Shanghai Cell Bank of China Center for Type Culture Collection under the Chinese Academy of Sciences.
Polypeptide group: Peptide (26), peptide (33), peptide (39) and peptide (49). The test concentrations of all the above samples were 1 ppm, 10 ppm, 50 ppm, 100 ppm, 200 ppm, 500 ppm and 1000 ppm.
Blank control group: PBS.
Positive control group: 2% DMSO.
(§2) Cells in good exponential growth phase were taken. A 0.25% trypsin digestion solution was added so that digestion allowed the adherent cells to fall off, counting 1 to 4×10^5 cells/mL, which were prepared into a cell suspension.
The cell suspension was inoculated into a 96-well plate with 200 µL/well, and cultured in a constant-temperature CO2 incubator for 24 h. […]
20 μL of 5 mg/mL MTT was added to each well and the incubation was continued in the 5% CO2 incubator at 37° C. for 4 h. […] After shaking the plate on a plate shaker for 5 min, a microplate reader was used to determine the OD value of each well at a wavelength of 570 nm, and the cell viability was calculated.
The MTT assay is a method of detecting cell survival and growth. The measured OD values are directly proportional to cell viability. […]

[2] = test system: Human keratinocytes (HaCaT); assay: Determination of hyaluronic acid content; settings: 10 ppm, 48 h, compared with blank control group, FIG. 9
Procedure: (§3) Human keratinocytes (HaCaT) were purchased from the Kunming Cell Bank of China Center for Type Culture Collection under the Chinese Academy of Sciences.
Polypeptide group: Peptide (26), peptide (33), peptide (39) and peptide (49). The test concentrations of all the above samples were 10 ppm.
A bottle of HaCaT cells in good exponential growth phase was taken. A 0.25% trypsin digestion solution was added so that digestion allowed the adherent cells to fall off, counting 1 to 4×10^6 cells/mL, which were prepared into a cell suspension.
The cells were inoculated into a 6-well plate at 10^5 cells/well, and grouped when the cells reached approximately 80% confluence. […]
After completion of the culture, cells were scraped off using a cell scraper, and 200 μL of RIPA lysis buffer was added to extract proteins. […] The total protein concentration was quantified to 1 mg/mL using the BCA method. […] The OD value of each well was measured in sequence at 570 nm using a microplate reader within 15 min.
Hyaluronic acid is one of the main matrix ingredients of the human skin epidermis and an important component of the skin barrier. […] This experiment measured the effect of the peptide of the present invention on the hyaluronic acid content to determine whether the peptide of the invention can increase the hyaluronic acid content and thus play a role in moisturizing and anti-aging repair.

[3] = test system: Human keratinocytes (HaCaT); assay: Cell scratch assay; settings: 24 h, FIG. 8; for order of effects on promoting the proliferation and migration of HaCaT cells: 50-100 ppm
Procedure: as §3
Polypeptide group: Peptide (26), peptide (33), peptide (39) and peptide (49). The test concentrations of all the above samples were 50 ppm and 100 ppm.
Positive control group: 50 U/mL of EGF.
A bottle of HaCaT cells in good exponential growth phase was taken. A 0.25% trypsin digestion solution was added so that digestion allowed the adherent cells to fall off, counting 1 to 4×10^5 cells/mL, which were prepared into a cell suspension.
The cells were inoculated into a 24-well plate at a density of 150,000 cells/well, with 2 mL cell suspension per well. After the cells attached to the wall and grew to 100% confluence, the culture medium was replaced with a medium containing 0.5%-1% fetal bovine serum to maintain the cells for 24 h for synchronization. A sterilized pipette tip was used to scratch a wound, the detached cells were washed off with PBS, and the samples to be tested were added. The incubation was continued in the 5% CO2 incubator at 37° C., and the migration of cells was observed under an optical microscope after 24 h.
The scratch migration experiment of cells can reflect the proliferation and repair ability of cells. A scratch assay was performed on the basis of HaCaT cells growing all over the dish, and the migration of cells was observed under an optical microscope 24 h after administration of the samples to evaluate the effect of the test samples on cell proliferation and migration.

[4] = test system: Human keratinocytes (HaCaT); assay: Photoaging experiment (UV-irradiated HaCaT, MTT); settings: 80 mJ/cm^2 UV, 24 h, compared with the UV group, FIG. 7
Procedure: as §3
Polypeptide group: Peptide (26), peptide (33), peptide (39) and peptide (49). The test concentrations of all the above samples were 1 ppm, 10 ppm, 50 ppm, 100 ppm, and 200 ppm.
as §2
The cell suspension was properly diluted and inoculated into a 96-well plate at 10,000 cells/well. When the cells reached approximately 80% confluence, a UV photoaging model was established. In the blank control group, 50 μL of PBS was added, and supplemented with the culture medium to 200 μL, while no UV irradiation was performed. For the UV group and the polypeptide groups, a proper amount of PBS was added to wash the culture repeatedly until colorless, followed by adding 50 μL of PBS and irradiating under an 80 mJ/cm^2 UV light. The distance between the light source and the culture bottle was 15 cm. After irradiation, the PBS was removed. In the UV group, a PBS solution and the culture medium were added to 200 μL; in the polypeptide groups, the culture medium and the samples diluted in a certain ratio were added to 200 μL. The blank control group, the UV group, and the polypeptide groups were further incubated in a 5% CO2 incubator at 37° C. for 24 h.
Then 22 μL of 5 mg/mL MTT was added to each well and the incubation was continued in the 5% CO2 incubator at 37° C. for 4 h. The original solution was removed and 150 µL/well of DMSO was added. After shaking the plate on a plate shaker for 5 min, a microplate reader was used to read the reference OD values at wavelengths of 490 nm and 630 nm.
Skin aging is affected by endogenous and exogenous factors, such as genetics, environmental exposure, UV irradiation, hormonal changes, etc. The accumulation of these factors, especially exposure to UV irradiation, leads to changes in structure, function and appearance of the skin. In this experiment, 80 mJ/cm^2 UV energy was selected for radiation to establish a skin photoaging model.

[5] = test system: Human skin fibroblasts (HSF); assay: Collagen content assay (collagen I ELISA, UV photoaging model); settings: 100 ppm, UV-irradiated HSF, 48 h, FIG. 10
Procedure: as §1
Polypeptide group: Palmitoyl pentapeptide-4 (Palm-Lys-Thr-Thr-Lys-Ser-OH), peptide (26), peptide (32), peptide (33), peptide (39), and peptide (49), all at a test concentration of 100 ppm;
HSF cells in good exponential growth phase were taken. A 0.25% trypsin digestion solution was added so that digestion allowed the adherent cells to fall off, counting 1 to 4×10^6 cells/mL, which were prepared into a cell suspension.
The cell suspension was inoculated into a 6-well plate at 10^5 cells/well. A UV photoaging model was established when the cells reached approximately 80% confluence. In the blank control group, 200 μL of PBS was added, supplemented with the culture medium to 800 μL, while no UV irradiation was performed. For the UV group and the polypeptide groups, a proper amount of PBS was added to wash the culture repeatedly until colorless, followed by adding 200 μL of PBS and irradiating under an 80 mJ/cm^2 UV light. The distance between the light source and the culture bottle was 15 cm. After irradiation, the PBS was removed. In the UV group, a PBS solution and culture medium were added to 800 μL; in the polypeptide groups, the culture medium and the samples diluted in a certain ratio were added to 800 μL. The blank control group, the UV group, and the polypeptide groups were further incubated in a 5% CO2 incubator at 37° C. for 48 h.
After completion of the culture, the cells were scraped off using a cell scraper, mixed by pipetting, and the cell protein was extracted using RIPA and quantified to 1 mg/mL with BCA. The procedure was performed according to the operation instructions of collagen I ELISA. The OD value of each well was measured in sequence at 450 nm using a microplate reader within 15 min.
Collagen is the most abundant protein found in connective tissue, and provides plumpness and firmness to the skin. […] In this experiment, UV-irradiated cells were treated with test samples, and the content of collagen I in corresponding cells was detected to determine whether the peptide of the present invention can promote collagen synthesis.

Compound	order of effects on promoting the proliferation and migration of HaCaT cells [3]	activity of photoaged HaCaT keratinocytes ([4]; range of 1-200 ppm)	collagen content (collagen I) compared with palmitoyl pentapeptide-4 [5]	further results
C[S+](C)[O-] [DMSO, dimethyl sulfoxide, reference compound]				HSF cell viability (positive control) ([1]; 2% DMSO, compared with blank control group): toxic effect on HSF cells
Ac-Lys-Arg-Tyr-Gly-Trp-NH2 (Ac-KRYGW-NH2) [peptide (49)]	peptide (33)>peptide (26)>peptide (49)>peptide (39)	improve the activity of HaCaT keratinocytes to different degrees	more significantly increase the collagen content	hyaluronic acid content [2]: more superior technical effects
Ac-Lys-Lys-Trp-Val-Thr-His-NH2 (Ac-KKWVTH-NH2) [peptide (39)]	peptide (33)>peptide (26)>peptide (49)>peptide (39)		more significantly increase the collagen content	activity of photoaged HaCaT keratinocytes ([4]; at 1 ppm, 100 ppm and 200 ppm): improve cell activity; HSF cell activity / proliferation of HSF fibroblasts ([1]; low concentration of 1-10 ppm): significantly increase cell activity and promote the proliferation of HSF fibroblasts
Ac-Lys-Pro-Leu-Trp-His-Val-NH2 (Ac-KPLWHV-NH2) [peptide (33)]	peptide (33)>peptide (26)>peptide (49)>peptide (39)	improve the activity of HaCaT keratinocytes to different degrees	more significantly increase the collagen content	
Ac-Lys-Pro-Leu-Trp-His-Val-OH (Ac-KPLWHV-OH) [peptide (32)]			more significantly increase the collagen content	
Ac-Tyr-Gly-Trp-Lys-Lys-Gln-NH2 (Ac-YGWKKQ-NH2) [peptide (26)]	peptide (33)>peptide (26)>peptide (49)>peptide (39)	improve the activity of HaCaT keratinocytes to different degrees	more significantly increase the collagen content	hyaluronic acid content [2]: more superior technical effects
EGF: Positive control group: 50 U/mL of EGF [reference compound]				cell proliferation and migration of HaCaT cells (positive control) ([3]; 50 U/mL, compared with blank control group): obvious cell proliferation and migration
